Measured values reported in patent US20240199608A1 (Eli Lilly and Company, priority 2022, published 2024).

Target: T1, Human AhR (Homo sapiens, UniProt P35869)
T1 construct: expressed in transfected cells
T1 sequence (P35869 11-848): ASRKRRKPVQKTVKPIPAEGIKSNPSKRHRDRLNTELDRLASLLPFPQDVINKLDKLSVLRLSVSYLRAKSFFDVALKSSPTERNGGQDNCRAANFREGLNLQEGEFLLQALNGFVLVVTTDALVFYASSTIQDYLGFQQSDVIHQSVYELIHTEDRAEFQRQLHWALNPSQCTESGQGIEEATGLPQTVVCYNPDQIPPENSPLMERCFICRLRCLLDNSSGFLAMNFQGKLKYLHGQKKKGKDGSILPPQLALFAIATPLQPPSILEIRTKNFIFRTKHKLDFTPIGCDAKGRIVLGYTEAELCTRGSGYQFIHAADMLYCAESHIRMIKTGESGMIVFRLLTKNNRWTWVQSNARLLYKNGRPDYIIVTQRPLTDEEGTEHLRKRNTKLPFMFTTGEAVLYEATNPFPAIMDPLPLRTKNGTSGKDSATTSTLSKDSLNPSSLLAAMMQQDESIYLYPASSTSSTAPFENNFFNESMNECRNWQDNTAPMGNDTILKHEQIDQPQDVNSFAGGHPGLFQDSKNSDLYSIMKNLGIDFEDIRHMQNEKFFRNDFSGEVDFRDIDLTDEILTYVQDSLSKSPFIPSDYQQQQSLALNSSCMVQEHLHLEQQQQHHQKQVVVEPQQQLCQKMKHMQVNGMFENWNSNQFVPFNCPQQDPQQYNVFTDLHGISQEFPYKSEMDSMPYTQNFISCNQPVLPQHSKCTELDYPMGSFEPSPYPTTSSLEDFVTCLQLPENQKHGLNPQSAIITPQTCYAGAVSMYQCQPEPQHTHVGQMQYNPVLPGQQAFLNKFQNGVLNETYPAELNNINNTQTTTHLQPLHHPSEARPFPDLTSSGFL
Test: hAHR Nuclear Translocation Assay
Type: cell-based
Conditions: AhR-EGFP nuclear translocation in Jump-In T-REx HEK293 cells, 45 minutes incubation; class symbols; read-out: Rel EC50
Description: The purpose of this assay is to measure the ability of compounds to bind to, activate, and induce the translocation of AhR into the nucleus of a cell for transcription. Stable cell lines were established using Jump-InTM T-RExTM HEK293 Retargeting Kit (Life Technologies). Human AhR cDNA was cloned into the pJTI R4 CMV-TO EGFP vector. The EGFP was cloned to the C-terminal of AHR to form AhR-EGFP chimera. The pJTI R4 CMV-TO AhR-EGFP vector was transfected using FuGENE® HD into Jump-InTM T-RExTM HEK293 cells. Transfected cells were selected using 2.5 mg/ml G418 for 10 to 14 days, then expanded, harvested, and suspended in freeze media (FBS with 8% DMSO) at 2×10^7 cells/ml, and aliquots were stored in liquid nitrogen. One day before the assay date, cells were thawed and resuspended in DMEM with 5% FBS in the presence of 1 μg/ml Doxycycline and plated into ploy-L-Lysine coated […]-384 ULTRA Microplates (Perkin Elmer) at 12,000 to 15,000 cells per well and incubated at 37° C. and 5% CO2 overnight. On the assay date, compound was serially diluted (1:2) into 384-well nunc plates with DMSO using acoustic dispensing (ECHO®). The dose response was a 20-point curve. […] The culture media was damped and 25 μl of DMEM plus 0.1% BSA was added, then 25 μL of compound in DMEM plus 0.1% BSA was added into cell plates. Cells were incubated compounds at 37° C. and 5% CO2 for 45 minutes. The final DMSO concentration was 0.2%. The media was damped after 45 minutes incubation. The cells were fixed with 40 μl of cold MeOH (-20° C.) for 20 minutes. The MeOH was damped and 50 μL of DPBS containing 1 μg/mL Hochst was added into the cell plates. The intensity of EGFP was quantitated by using Opera PHENIX® or OPERETTA® high content image system (Perkin Elmer) with 20× Water Objective and five field per well. The ratio of EGFP fluorescent intensity in nuclear over cytosol was analyzed using a 4-parameter nonlinear logistic equation to determine the potency of AhR agonists.

Row | EC50 [nM] | SMILES
1 | 1 to 10 | O=C(Nc1ncc(F)cn1)c1cc2c(n3cnnc13)CCC2C1CC1 (single isomer, unassigned) [Example 66, 6-Cyclopropyl-N-(5-fluoropyrimidin-2-yl)-7,8-dihydro-6H-cyclopenta[e][1,2,4] triazolo[4,3-a]pyridine-4-carboxamide]
2 | 1 to 10 | O=C(Nc1ncc(F)cn1)c1cc2c(n3cnnc13)CCC2C1CC1 (single isomer, unassigned) [Example 67, 6-Cyclopropyl-N-(5-fluoropyrimidin-2-yl)-7,8-dihydro-6H-cyclopenta[e][1,2,4] triazolo[4,3-a]pyridine-4-carboxamide]
3 | 10 to 50 | CCCC1CCc2c1cc(C(=O)Nc1ncc(F)cn1)c1nncn21 (single isomer, unassigned) [Example 68, N-(5-Fluoropyrimidin-2-yl)-6-propyl-7,8-dihydro-6H-cyclopenta[e][1,2,4] triazolo[4,3-a]pyridine-4-carboxamide]

Second part, the molecule before the results:

Row | SMILES | EC50 [nM]
4 | CC1CCc2c1cc(C(=O)Nc1ccn(C)n1)c1nncn21 (single isomer, unassigned) [Example 63, 6-Methyl-N-(1-methyl-1H-pyrazol-3-yl)-7,8-dihydro-6H-cyclopenta[e][1,2,4] triazolo[4,3-a]pyridine-4-carboxamide] | 10 to 50
5 | O=C(Nc1ncc(F)cn1)c1cc2c(n3cnnc13)CCC2C1CCC1 (single isomer, unassigned) [Example 64, 6-Cyclobutyl-N-(5-fluoropyrimidin-2-yl)-7,8-dihydro-6H-cyclopenta[e][1,2,4] triazolo[4,3-a]pyridine-4-carboxamide] | 1 to 10
6 | O=C(Nc1ncc(F)cn1)c1cc2c(n3cnnc13)CCC2C1CCC1 (single isomer, unassigned) [Example 65, 6-Cyclobutyl-N-(5-fluoropyrimidin-2-yl)-7,8-dihydro-6H-cyclopenta[e][1,2,4] triazolo[4,3-a]pyridine-4-carboxamide] | 1 to 10

Same assay, conditions: AhR-EGFP nuclear translocation in Jump-In T-REx HEK293 cells, 45 minutes incubation; numeric values; read-out: Rel EC50

Row | EC50 [nM] | SMILES
7 | 5.79 | C[C@H]1CCc2c1cc(C(=O)Nc1ncc(F)cn1)c1nncn21 [Example 5, (S)-N-(5-Fluoropyrimidin-2-yl)-6-methyl-7,8-dihydro-6H-cyclopenta[e][1,2,4]triazolo [4,3-a]pyridine-4-carboxamide]
8 | 5.74 | C[C@@H]1CCc2c1cc(C(=O)Nc1ncc(F)cn1)c1nncn21 [Example 6, (R)-N-(5-Fluoropyrimidin-2-yl)-6-methyl-7,8-dihydro-6H-cyclopenta[e][1,2,4]triazolo [4,3-a]pyridine-4-carboxamide]

More lines, now with the values behind:

Row | SMILES | EC50 [nM]
9 | O=C(Nc1ncc(F)cn1)c1cc2ccccc2n2cnnc12 [Example 1, N-(5-Fluoropyrimidin-2-yl)-[1,2,4]triazolo[4,3-a]quinoline-4-carboxamide] | 3.1
10 | O=C(Nc1ncc(F)cn1)c1cc2ccccc2n2ccnc12 [Example 2, N-(5-Fluoropyrimidin-2-yl)imidazo[1,2-a]quinoline-4-carboxamide] | 0.585
